Laboratory results: patent US20040258676A1, “Stimulation of the activity of an isoform of lysyl oxidase for combating against some pathologies due to an incomplete, absent or disorganized elastogenesis” (COLETICA, priority 2003, published 2004)

Tests used:
[1] = test system: LOX mRNA; assay: Screening of actives by qualitative RT-PCR, LOX mRNA in aged adult fibroblasts (Example 9); assay type: cell-based; conditions: actives at 1% (v/v), 24 hours, fibroblasts of normal human skin of aged adults; compared to actin and to negative control
Protocol: (§1) The actives were tested at 1% (v/v) on fibroblasts of normal human skin (originating from healthy <<aged >> adults). The culture was carried out, e.g. in a monolayer on 24-well culture plates, in a defined medium without serum (Fibroblast Basal Medium, Promocell, Germany). The cells were sown, e.g. at 40,000 per cm^2. At the confluence, the cells are placed in contact with the actives advantageously for 24 hours. In parallel, a non-treated control (medium alone) and three positive controls (TGF-β at 1 ng/ml, IL-1α at 50 pg/ml and Phytokine® (Coletica, France) at 2%(v/v)) are advantageously carried out, e.g. on the same culture plate. The TGF-β at 1 ng/ml and the IL-1α at 50 pg/ml were tested beforehand and the stimulation of the synthesis of elastin mRNA induced by these two cytokines at these concentrations was verified by an analysis of the mRNAs, e.g. by quantitative RT-PCR (×10 for TGF-β and x6 for IL-1 alpha). […] The total RNAs are extracted e.g. with the aid of an extraction kit of 96 wells on silica columns and were determined on a 96-well spectrophotometer at 260 nm (purity indicator: protein determination at 280 nm). […] The photographs of the gels were analyzed by image analysis and quantification of the intensity of the bands (Phoretix1D Quantifier, Non Linear Dynamics Ltd, USA). […]

[2] = test system: elastin (Eln) mRNA; assay: Screening of actives by qualitative RT-PCR, elastin mRNA in aged adult fibroblasts (Example 9); assay type: cell-based; conditions: actives at 1% (v/v), 24 hours, fibroblasts of normal human skin of aged adults; compared to actin and to negative control
Protocol: as §1

[3] = test system: elastin mRNA; assay: Verification of positive controls: stimulation of the synthesis of elastin mRNA by quantitative RT-PCR; assay type: cell-based, human; conditions: TGF-β at 1 ng/ml
Protocol: The TGF-β at 1 ng/ml and the IL-1α at 50 pg/ml were tested beforehand and the stimulation of the synthesis of elastin mRNA induced by these two cytokines at these concentrations was verified by an analysis of the mRNAs, e.g. by quantitative RT-PCR (×10 for TGF-β and x6 for IL-1 alpha). After the time of placing the actives in contact with the cells, e.g. 24 hours, the media are removed and the cells are preserved e.g. by dry freezing at −80° C. after a rinsing in phosphate buffer pH 7.4. The total RNAs are extracted e.g. with the aid of an extraction kit of 96 wells on silica columns and were determined on a 96-well spectrophotometer at 260 nm (purity indicator: protein determination at 280 nm). […]
The actives were tested at 1% (v/v) on human scar tissue skin fibroblasts (surgical recovery of hypertropic scar after caesarean) in premature passage (lower than 5 passages). […] The TGF-β at 1 ng/ml and the IL-1α at 50 pg/ml were tested beforehand and the stimulation of the synthesis of elastin mRNA induced by these two cytokines at these concentrations was verified by an analysis of the mRNAs, e.g. by quantitative RT-PCR (x10 for TGF-β and x6 for IL-1 alpha). […] The total RNAs are extracted e.g. with the aid of an extraction kit of 96 wells on silica columns and were determined on a 96-well spectrophotometer at 260 nm (purity indicator: protein determination at 280 nm). […]

| Molecule | LOX Control multiplied by: [1] | Eln Control multiplied by: [2] | stimulation of the synthesis of elastin mRNA [3] [x] |
| --- | --- | --- | --- |
| OC[C@@H](O)[C@H](O)[C@@H](O)CO [Xylitol] | 3.10 | 0.27 | – |
| TGF-β | – | – | 10 |
